# Assay results: patent US20230131720A1, “[1,3]DIAZINO[5,4-d]PYRIMIDINES AS HER2 INHIBITORS” (Boehringer Ingelheim International GmbH, priority 2020, published 2023)
# Where two headings read alike, the source gives them in different places.
# Legend:
# Format in all cases: cell-based
# EGFR wild type (WT) = biological target: T1, EGFR wild type (WT) (Homo sapiens, UniProt P00533); test: pEGFR assay (AlphaScreen Surefire, HEK cells); conditions: HEK cells expressing EGFR WT
# T1 construct: expressed in transfected cells; host or cells: human HEK cells (ATCC CRL-1573), retroviral transduction
# T1 sequence (P00533 25-1210): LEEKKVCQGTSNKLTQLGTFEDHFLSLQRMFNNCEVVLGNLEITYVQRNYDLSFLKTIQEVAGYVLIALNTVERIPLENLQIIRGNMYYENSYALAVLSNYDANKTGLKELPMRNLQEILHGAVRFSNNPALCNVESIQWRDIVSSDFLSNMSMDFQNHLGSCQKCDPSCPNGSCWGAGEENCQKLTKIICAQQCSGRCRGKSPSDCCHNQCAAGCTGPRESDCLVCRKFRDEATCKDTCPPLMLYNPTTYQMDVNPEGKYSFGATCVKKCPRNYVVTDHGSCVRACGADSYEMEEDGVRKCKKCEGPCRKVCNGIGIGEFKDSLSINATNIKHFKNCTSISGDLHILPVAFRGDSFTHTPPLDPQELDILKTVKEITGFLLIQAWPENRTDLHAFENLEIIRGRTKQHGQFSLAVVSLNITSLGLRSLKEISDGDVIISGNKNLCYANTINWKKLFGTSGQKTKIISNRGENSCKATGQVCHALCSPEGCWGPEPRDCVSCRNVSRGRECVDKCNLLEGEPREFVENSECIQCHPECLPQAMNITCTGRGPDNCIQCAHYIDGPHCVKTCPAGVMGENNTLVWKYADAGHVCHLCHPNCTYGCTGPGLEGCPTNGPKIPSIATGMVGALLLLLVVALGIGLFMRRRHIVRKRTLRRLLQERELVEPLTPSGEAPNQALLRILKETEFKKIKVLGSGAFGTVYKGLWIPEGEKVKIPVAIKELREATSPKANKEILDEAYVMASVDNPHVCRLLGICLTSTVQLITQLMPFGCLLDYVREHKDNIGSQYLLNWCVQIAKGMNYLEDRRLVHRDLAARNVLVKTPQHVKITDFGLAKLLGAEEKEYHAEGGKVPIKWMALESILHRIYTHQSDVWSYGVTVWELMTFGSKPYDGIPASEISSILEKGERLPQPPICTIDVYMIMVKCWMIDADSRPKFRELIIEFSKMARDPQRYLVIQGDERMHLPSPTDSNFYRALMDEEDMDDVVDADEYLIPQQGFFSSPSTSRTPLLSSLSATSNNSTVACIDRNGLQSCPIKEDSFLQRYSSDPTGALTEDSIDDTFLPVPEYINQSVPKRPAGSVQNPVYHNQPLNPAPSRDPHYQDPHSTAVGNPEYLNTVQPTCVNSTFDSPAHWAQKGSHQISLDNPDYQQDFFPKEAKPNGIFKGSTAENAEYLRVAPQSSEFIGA
# Experimental: This assay quantifies the phosphorylation of EGFR at Tyr1068 and was used to measure the inhibitory effect of compounds on the transgenic EGFR wild type (WT) protein expressed in HEK cells.
# Transduced cells were selected using puromycin. p-EGFR Tyr1068 was determined using the AlphaScreen Surefire pEGF Receptor (Tyr1068) Assay (PerkinElmer, TGRERS). For the assay, HEK EGFR WT cells were seeded in MEM medium with 10% FBS. […] Subsequently, 60.000 cells/well in 60 μL were added. Cells were incubated with compounds for 4 h at 37° C. […] The mixture was incubated at a temperature of 20-25° C.—with shaking (700 rpm) for 20 min. After centrifugation, 4 μL of the lysate were transferred to Proxiplates. […] Plates were shaken for 1 min (1400 rpm) and incubated for 2 h at a temperature of 20-25° C. in the dark.
# This cellular phospho-EGFR (pEGFR) compound dose-response assay quantifies the phosphorylation of EGFR at Tyr1068 in HEK cells expressing EGFR WT. The results of the assay are provided as IC50 values.
# [1] = tested on: NCI-H2170 (HER2 wild type) cells; test: Tumor cell line proliferation assay, NCI-H2170 (HER2 wild type); conditions: Homo sapiens, 72 h, CellTiter-Glo, read-out: GI50 NCI H-2170 HER2 wt amp.
# Experimental: (§1) For proliferation assays, NCI-H2170 (HER2 wild type), NCI-H2170 HER2 YVMA and EGFR WT dependent A431 cells were used. NCI-H2170 HER2 YVMA or NCI-H2170 cells were seeded into 96-well plates at 750 cells/60 μL in growth media (RPMI ATCC+10% FBS, +Penicillin/Streptomycin). […] Compounds were added by using a HP D3000 Digital Dispenser one day after plating the cells. All treatments were performed in technical triplicates. Treated cells were incubated for 72 h at 37° C. with 5% CO2. CellTiter-Glo® Luminescent Cell Viability Assay (Promega) was performed and chemoluminescence was measured by using the multilabel Plate Reader VICTOR X4. The raw data were imported into and analyzed with the Boehringer Ingelheim proprietary software MegaLab (curve fitting based on the program PRISM, GraphPad Inc.).
# HER2 YVMA = biological target: T2, HER2 YVMA (Homo sapiens, UniProt P04626, INS775YVMA); test: pHER2 (ERBB2) YVMA assay (AlphaScreen Surefire, HEK cells); conditions: HEK cells expressing HER2 YVMA
# T2 construct: expressed in transfected cells; host or cells: human HEK cells, retroviral transduction, doxycycline-inducible expression
# T2 sequence (P04626 with tags, fused parts or gaps INS775YVMA): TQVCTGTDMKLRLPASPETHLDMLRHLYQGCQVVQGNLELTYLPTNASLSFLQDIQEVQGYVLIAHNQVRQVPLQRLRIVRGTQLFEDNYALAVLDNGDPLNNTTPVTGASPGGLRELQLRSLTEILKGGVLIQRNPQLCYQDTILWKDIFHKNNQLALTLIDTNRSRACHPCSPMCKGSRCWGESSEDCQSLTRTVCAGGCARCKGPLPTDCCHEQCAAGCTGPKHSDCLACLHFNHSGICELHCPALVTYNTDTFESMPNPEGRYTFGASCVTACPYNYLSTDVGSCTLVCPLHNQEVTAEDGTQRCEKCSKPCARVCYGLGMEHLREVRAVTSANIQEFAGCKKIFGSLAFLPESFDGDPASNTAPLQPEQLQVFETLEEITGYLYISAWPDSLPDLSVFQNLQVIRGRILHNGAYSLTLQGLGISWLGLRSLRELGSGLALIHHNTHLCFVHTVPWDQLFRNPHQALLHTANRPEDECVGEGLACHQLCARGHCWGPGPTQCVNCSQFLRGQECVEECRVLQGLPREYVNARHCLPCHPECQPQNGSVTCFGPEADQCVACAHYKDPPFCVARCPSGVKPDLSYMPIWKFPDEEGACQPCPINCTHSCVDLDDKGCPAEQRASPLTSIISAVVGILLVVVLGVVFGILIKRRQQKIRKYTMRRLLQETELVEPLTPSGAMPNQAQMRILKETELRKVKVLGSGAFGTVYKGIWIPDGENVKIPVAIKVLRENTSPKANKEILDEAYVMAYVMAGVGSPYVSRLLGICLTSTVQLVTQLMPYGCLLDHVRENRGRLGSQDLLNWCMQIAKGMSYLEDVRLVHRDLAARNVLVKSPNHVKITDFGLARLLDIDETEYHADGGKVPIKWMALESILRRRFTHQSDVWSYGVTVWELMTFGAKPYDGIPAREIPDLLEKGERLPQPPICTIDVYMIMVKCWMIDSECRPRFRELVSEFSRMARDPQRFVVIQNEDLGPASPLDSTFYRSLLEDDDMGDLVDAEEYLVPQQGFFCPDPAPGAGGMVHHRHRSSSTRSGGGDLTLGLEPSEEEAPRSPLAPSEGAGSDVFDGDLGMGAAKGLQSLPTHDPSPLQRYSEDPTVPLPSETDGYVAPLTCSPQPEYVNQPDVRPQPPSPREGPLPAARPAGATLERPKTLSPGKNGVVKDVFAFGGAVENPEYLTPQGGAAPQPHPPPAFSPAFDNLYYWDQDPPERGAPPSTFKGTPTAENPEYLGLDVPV
# Experimental: For the assay, HEK HER2 YVMA cells were seeded in MEM medium with 10% FBS. 4 hours prior to compound addition, HER2 YVMA expression was induced using 1 μg/ml Doxycycline. […] Subsequently, 60.000 cells/well in 60 μL were added. Cells were incubated with compounds for 4 h at 37° C. […] The mixture was incubated at a temperature of 20-25° C. with shaking (700 rpm) for 20 min. After centrifugation, 4 μL of the lysate were transferred to Proxiplates. […] Plates were shaken for 1 min (1400 rpm) and incubated for 2 h at a temperature of 20-25° C. in the dark.
# The results of the assay are provided as IC50 values.
# [2] = tested on: NCI-H2170 HER2 YVMA cells; test: Tumor cell line proliferation assay, NCI-H2170 HER2 YVMA; conditions: Homo sapiens, 72 h, CellTiter-Glo, read-out: GI50 NCI H-2170 HER2 YVMA
# Text: Homology-directed genome engineering was employed to insert a 12 nucleotide sequence encoding YVMA into Exon 20 of the genomic HER2 locus in NCI-H2170 cells. […] The DNA template containing the HER2 exon 20 YVMA insertion variant was obtained from GenScript. PCR followed by Sanger sequencing was used to confirm the presence of the 12-nucleotide insertion in HER2 Exon 20 resulting in the YVMA amino acid duplication.
# as §1
# Ba/F3 cells EGFR WT = test: Ba/F3 proliferation assay, EGFR WT (EGF dependent); conditions: Mus musculus, CellTiter-Glo, read-out: GI50 BAF3 EGF dep.
# Experimental: (§2) Plasmids containing HER2 mutants and EGFR WT were obtained from GeneScript. To generate EGFR/HER2-dependent Ba/F3 models, Ba/F3 cells were transduced with retroviruses containing vectors that harbor EGFR WT, HER2 WT or HER2 mutants (YVMA). Platinum-E cells (Cell Biolabs) were used for retrovirus packaging. Retrovirus was added to Ba/F3 cells. To ensure infection, 4 μg/mL polybrene was added and cells were spinfected. Infection efficiency was confirmed by measuring GFP-positive cells using a cell analyzer. Cells with an infection efficiency of 10% to 20% were further cultivated and puromycin selection with 1 μg/mL was initiated. As a control, parental Ba/F3 cells were used to assess the selection status. Selection was considered successful when parental Ba/F3 cells cultures died. To evaluate the transforming potential of HER2 mutations, the growth medium was no longer supplemented with IL-3. Ba/F3 cells harboring the empty vector were used as a control. A switch from IL-3 to EGF was performed for Ba/F3 cells with the EGFR WT known for its dependency on EGF ligand. Approximately ten days before conducting the experiments, puromycin was left out. For proliferation assays (data in table 12 and 14), Ba/F3 cells were seeded into 96-well plates at 5×10^3 cells/100 μL in growth media. Compounds were added by using a HP D3000 Digital Dispenser. All treatments were performed in technical triplicates. Treated cells were incubated for 72 h at 37° C. with 5% CO2. CellTiter-Glo® Luminescent Cell Viability Assay (Promega) was performed and chemoluminescence was measured by using the multilabel Plate Reader VICTOR X4. The raw data were imported into and analyzed with the Boehringer Ingelheim proprietary software MegaLab (curve fitting based on the program PRISM, GraphPad Inc.).
# Ba/F3 cells HER2 WT = test: Ba/F3 proliferation assay, HER2 WT; conditions: Mus musculus, BaF3, 72 h, CellTiter-Glo
# Experimental: as §2
# [3] = tested on: EGFR WT dependent A431 cells; test: Tumor cell line proliferation assay, A431; conditions: Homo sapiens, A-431, 72 h, CellTiter-Glo, read-out: GI50 A431 EGFR wt amp.
# Experimental: as §1
# [4] = tested on: Ba/F3 cells HER2 mutants (YVMA); test: Ba/F3 proliferation assay, HER2 YVMA; conditions: Mus musculus, BaF3, 72 h, CellTiter-Glo
# Experimental: as §2
# [5] = phosphorylation at Tyr1068, 4 h
# [6] = phosphorylation at Tyr1221/1222, 4 h
# [7] = BaF3, EGF instead of IL-3, 72 h
# [8] = BaF3, prior art compounds (Table 14), EGF, 72 h
IC50 (EGFR wild type (WT); [5]),IC50 (HER2 YVMA; [6]),GI50 (Ba/F3 cells EGFR WT; [7]),GI50 (Ba/F3 cells HER2 WT),GI50 [3],GI50 [4],"IC50 (EGFR wild type (WT); prior art compounds (Table 13), Tyr1068, 4 h)","IC50 (HER2 YVMA; prior art compounds (Table 13), Tyr1221/1222, 4 h)",GI50 (Ba/F3 cells EGFR WT; [8]),GI50 (Ba/F3 cells HER2 WT; prior art compounds (Table 14)),GI50 ([3]; prior art compounds (Table 14)),GI50 ([4]; prior art compounds (Table 14)),Structure (SMILES),GI50 [1],GI50 [2],GI50 ([1]; prior art compounds (Table 14)),GI50 ([2]; prior art compounds (Table 14))
153 nM,3 nM,1370 nM,1 nM,2180 nM,9 nM,–,–,–,–,–,–,C=CC(=O)N1CCN(c2ncc3ncnc(Nc4ccc(Oc5ccn6ncnc6c5)c(C)c4)c3n2)CC1 [Example I-1],6 nM,36 nM,–,–
62 nM,2 nM,670 nM,1 nM,1570 nM,6 nM,–,–,–,–,–,–,C=CC(=O)N1CCN(c2ncc3ncnc(Nc4ccc(Oc5ccn6ncnc6c5)c(Cl)c4)c3n2)CC1 [Example I-2],6 nM,40 nM,–,–
371 nM,10 nM,2220 nM,2 nM,3830 nM,11 nM,–,–,–,–,–,–,C=CC(=O)N1CCN(c2ncc3ncnc(Nc4cc(Cl)c(Oc5ccn6ncnc6c5)c(Cl)c4)c3n2)CC1 [Example I-3],12 nM,70 nM,–,–
524 nM,18 nM,1010 nM,2 nM,> 5000 nM,20 nM,–,–,–,–,–,–,C=CC(=O)N1CCN(c2ncc3ncnc(Nc4cc(F)c(Oc5ccn6ncnc6c5)c(Cl)c4)c3n2)CC1 [Example I-4],12 nM,85 nM,–,–
840 nM,7 nM,> 5000 nM,4 nM,3640 nM,60 nM,–,–,–,–,–,–,C=CC(=O)N1CCN(c2ncc3ncnc(Nc4ccc(Oc5ccn6ncnc6c5)c(C)c4)c3n2)C[C@@H]1C [Example I-5],12 nM,108 nM,–,–
252 nM,6 nM,2650 nM,–,2640 nM,15 nM,–,–,–,–,–,–,C=CC(=O)N1CCN(c2ncc3ncnc(Nc4ccc(Oc5ccn6ncnc6c5)c(C)c4)c3n2)C[C@H]1C [Example I-6],9 nM,52 nM,–,–
1200 nM,7 nM,> 5000 nM,4 nM,3990 nM,29 nM,–,–,–,–,–,–,C=CC(=O)N1CCN(c2ncc3ncnc(Nc4ccc(Oc5ccn6ncnc6c5)c(C)c4)c3n2)[C@H](C)C1 [Example I-7],13 nM,125 nM,–,–
577 nM,6 nM,> 5000 nM,3 nM,3790 nM,22 nM,–,–,–,–,–,–,C=CC(=O)N1CCN(c2ncc3ncnc(Nc4ccc(Oc5ccn6ncnc6c5)c(C)c4)c3n2)[C@@H](C)C1 [Example I-8],14 nM,91 nM,–,–
–,–,–,–,–,–,355 nM,81 nM,3560 nM,40 nM,> 5000 nM,334 nM,"C=CC(=O)Nc1ccc2ncnc(Nc3ccc(Oc4ccn5ncnc5c4)c(C)c3)c2c1 [WO 2007/059257 Ex. 169, reference compound]",–,–,426 nM,1430 nM
–,–,–,–,–,–,–,–,14 nM,–,55 nM,5 nM,"CCOc1cc2ncc(C#N)c(Nc3ccc(OCc4ccccn4)c(Cl)c3)c2cc1NC(=O)/C=C/CN(C)C [neratinib, reference compound]",–,–,3 nM,37 nM
